Assay results taken from article PMC12668304, “A Triple Threat Against Ovarian Cancer: Os(II)‐Pt(IV)‐Ceritinib Conjugates for Photodynamic Therapy, Chemotherapy, and Immunogenic Cell Death Induction” (Angewandte Chemie (International Ed. in English), 2025).

Test system: MCA205 cells co-incubated with RAW 264.7 macrophages
Test: Phagocytosis of treated cancer cells by macrophages (flow cytometry, confocal microscopy)
Format: cell-based, mouse
Details: IC50,48 h concentration, 3 h co-incubation
Method: All compounds were incubated for 4 h with the cells, which were either irradiated at 740 nm (1 h) or kept in the dark. 16 h post‐treatment, cancer cells were stained with CellMask Green, while RAW 264.7 macrophages were stained with CellMask DeepRed. Co‐culture was performed at a 1 : 2 (macrophage : tumour cells) ratio for 3 h. Thereafter, the phagocytosis was evaluated by flow cytometry and confocal microscopy.
To quantify this phagocytic response, a flow cytometry assay was performed, see Figure 12. MCA205 cells were incubated with Os‐Pt‐Cer for 4 h, after which half of the samples were either kept in the dark (−L) or irradiated (+L) for 1 h (740 nm). After an additional 16 h, the cells were co‐incubated with RAW 264.7 macrophages for 3 h. […] Flow cytometry analysis was used to quantify phagocytosis, identifying double‐positive (green–red) events as phagocytic macrophages. […]
analyzed using an ATP assay kit according to the manufacturer’s instructions. Luminescence was measured on a SPARK multimode reader (Tecan). […]
MCA205 and A2780 cells were seeded on µ-slide 8 well (Ibidi) (100 µl/well) and left for 24 h to attach to the bottom at a density of 2 x 10^4 cells/well and incubated overnight. […] 30 minutes before starting confocal fluorescence microscopy analysis, Hoechst was added at a final concentration of 1 µg/mL. […] Images were analysed with LAS X Film FCS software. […]

SMILES	phagocytosis, double‐positive (green–red) events (upper right quadrant) (+L (740 nm, 1 h))	phagocytosis, double‐positive (green–red) events (upper right quadrant) (light condition not given)
C=Cc1c(C)c2cc3nc(c(CC(=O)O)c4[nH]c(cc5nc(cc1[nH]2)C(C)=C5CC)c(C)c4C(=O)O)[C@@H](CCC(=O)O)[C@@H]3C [Ce6, Chlorin e6]	7.4%	
O=C1[O][Pt]2([NH][C@@H]3CCCC[C@H]3[NH]2)[O]C1=O [Oxaliplatin]		6.0%
